How the values were obtained:
Serine protease 1 = Serine protease 1 (Homo sapiens, UniProt P07477); assay: Compound was evaluated for its inhibitory potency against trypsin
Tryptase = Tryptase (Homo sapiens, UniProt Q9BZJ3+Q15661+Q9NRR2); assay: Evaluated for its inhibitory potency against tryptase; format: protein assay
Plasminogen = Plasminogen (Homo sapiens, UniProt P00747); assay: Compound was evaluated for its inhibitory potency against plasmin
Prothrombin = Prothrombin (Homo sapiens, UniProt P00734); assay: Compound was evaluated for its inhibitory potency against thrombin

Sequence of Plasminogen (P00747 97-580 limits assumed): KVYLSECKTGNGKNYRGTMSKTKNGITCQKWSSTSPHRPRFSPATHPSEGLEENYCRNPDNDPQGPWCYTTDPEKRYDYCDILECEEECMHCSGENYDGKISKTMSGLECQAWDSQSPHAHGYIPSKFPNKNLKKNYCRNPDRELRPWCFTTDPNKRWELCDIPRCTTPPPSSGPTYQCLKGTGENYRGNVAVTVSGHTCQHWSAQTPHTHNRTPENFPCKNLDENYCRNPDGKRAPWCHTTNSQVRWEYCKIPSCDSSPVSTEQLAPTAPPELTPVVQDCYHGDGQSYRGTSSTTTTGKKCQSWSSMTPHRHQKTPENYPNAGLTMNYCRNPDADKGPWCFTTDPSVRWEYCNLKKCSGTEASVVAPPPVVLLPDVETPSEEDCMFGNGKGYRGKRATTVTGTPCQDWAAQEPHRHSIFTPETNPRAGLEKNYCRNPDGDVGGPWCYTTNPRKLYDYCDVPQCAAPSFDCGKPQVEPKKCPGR
Sequence of Plasminogen (P00747 581-810 limits assumed): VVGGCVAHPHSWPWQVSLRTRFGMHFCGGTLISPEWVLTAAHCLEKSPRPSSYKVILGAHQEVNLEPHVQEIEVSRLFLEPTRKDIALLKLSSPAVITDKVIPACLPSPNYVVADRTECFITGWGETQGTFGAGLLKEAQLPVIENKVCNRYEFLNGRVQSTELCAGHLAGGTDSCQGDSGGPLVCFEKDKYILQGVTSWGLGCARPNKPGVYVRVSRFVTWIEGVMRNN
Sequence of Serine protease 1 (P07477 whole entry): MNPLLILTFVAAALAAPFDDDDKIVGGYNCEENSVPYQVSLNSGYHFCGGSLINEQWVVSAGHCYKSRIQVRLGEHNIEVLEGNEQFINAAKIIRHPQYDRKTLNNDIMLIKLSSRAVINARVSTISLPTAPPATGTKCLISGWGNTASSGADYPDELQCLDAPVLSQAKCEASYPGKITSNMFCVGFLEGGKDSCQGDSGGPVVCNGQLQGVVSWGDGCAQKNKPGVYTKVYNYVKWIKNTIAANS

Row | Structure (SMILES) | Ki (Serine protease 1) [µM] | Ki (Tryptase) [µM] | Ki (Plasminogen) [µM] | Ki (Prothrombin) [µM]
1 | N=C(N)Nc1ccc(CNC(=O)N2CCN(C(=O)O[C@H]3CCC[C@@H](OC(=O)N4CCN(C(=O)NCCc5ccncc5)CC4)CCC3)CC2)cc1 | 131 | 0.9 | > 1000 | > 1000
2 | N=C(N)Nc1ccc(CNC(=O)N2CCN(C(=O)O[C@H]3CCC[C@@H](OC(=O)N4CCN(C(=O)NC[C@H]5CC[C@H](N)CC5)CC4)CCC3)CC2)cc1 | 141 | 0.001 | > 1000 | > 1000
3 | N=C(N)Nc1ccc(CNC(=O)N2CCN(C(=O)O[C@H]3CCC[C@@H](OC(=O)N4CCN(C(=O)CCCCn5ccnc5)CC4)CCC3)CC2)cc1 | 144 | 1 | > 1000 | > 1000
4 | N=C(N)Nc1ccc(CNC(=O)N2CCN(C(=O)O[C@H]3CCC[C@@H](OC(=O)N4CCN(C(=O)CCSc5ccncc5)CC4)CCC3)CC2)cc1 | 156 | 0.08 | > 1000 | 741
5 | NCCc1ccc(CC(=O)N2CCN(C(=O)O[C@H]3CCC[C@@H](OC(=O)N4CCN(C(=O)Cc5ccc(CCN)cc5)CC4)CCC3)CC2)cc1 | > 1000 | 0.002 | > 1000 | > 1000
6 | N=C(N)Nc1ccc(CNC(=O)N2CCN(C(=O)OCC34CC5CC(C3)CC(COC(=O)N3CCN(C(=O)NCc6ccc(NC(=N)N)cc6)CC3)(C5)C4)CC2)cc1 | 17 | 0.01 | 576 | 363
7 | NCc1ccc(CNC(=O)N2CCN(C(=O)O[C@H]3CCC[C@@H](OC(=O)N4CCN(C(=O)NCc5ccc(CN)cc5)CC4)CCC3)CC2)cc1 | 219 | 0.0001 | > 1000 | > 1000
8 | O=C(CCCCCn1ccnc1)N1CCN(C(=O)O[C@H]2CCC[C@@H](OC(=O)N3CCN(C(=O)CCCCCn4ccnc4)CC3)CCC2)CC1 | > 1000 | 46 | > 1000 | > 1000
9 | N=C(N)Nc1ccc(CCC(=O)N2CCN(C(=O)O[C@H]3CCC[C@@H](OC(=O)N4CCN(C(=O)CCc5ccc(NC(=N)N)cc5)CC4)CCC3)CC2)cc1 | > 1000 | 0.21 | > 1000 | 537

Now from value to compound:

Row | Ki (Serine protease 1) [µM] | Ki (Tryptase) [µM] | Ki (Plasminogen) [µM] | Ki (Prothrombin) [µM] | Structure (SMILES)
10 | 132 | 0.004 | > 1000 | > 1000 | N=C(N)Nc1ccc(CNC(=O)N2CCN(C(=O)O[C@H]3CCC[C@@H](OC(=O)N4CCN(C(=O)NCCCCN)CC4)CCC3)CC2)cc1
11 | 25 | 0.009 | 134 | 60 | N=C(N)c1ccc(CNC(=O)N2CCN(C(=O)O[C@H]3CCC[C@@H](OC(=O)N4CCN(C(=O)NCc5ccc(C(=N)N)cc5)CC4)CCC3)CC2)cc1
12 | 129 | 0.0005 | > 1000 | > 1000 | N=C(N)Nc1ccc(CNC(=O)N2CCN(C(=O)O[C@H]3CCC[C@@H](OC(=O)N4CCN(C(=O)NCCCCCN)CC4)CCC3)CC2)cc1
13 | > 1000 | 1 | 570 | > 1000 | NCCc1ccc(CCNC(=O)N2CCN(C(=O)O[C@H]3CCC[C@@H](OC(=O)N4CCN(C(=O)NCCc5ccc(CCN)cc5)CC4)CCC3)CC2)cc1
14 | 754 | 0.011 | > 1000 | > 1000 | NCCCCCNC(=O)N1CCN(C(=O)O[C@H]2CCC[C@@H](OC(=O)N3CCN(C(=O)NCCCCCN)CC3)CCC2)CC1
15 | > 1000 | 6 | > 1000 | > 1000 | CNCc1ccc(CNC(=O)N2CCN(C(=O)O[C@H]3CCC[C@@H](OC(=O)N4CCN(C(=O)NCc5ccc(CNC)cc5)CC4)CCC3)CC2)cc1
16 | 80 | 0.24 | > 1000 | > 1000 | N=C(N)Nc1ccc(CNC(=O)N2CCN(C(=O)O[C@H]3CCC[C@@H](OC(=O)N4CCN(C(=O)NCCCC5CCNCC5)CC4)CCC3)CC2)cc1

From ChEMBL document CHEMBL1132784, “Dibasic inhibitors of human mast cell tryptase. Part 2: structure-activity relationships and requirements for potent activity” (Bioorg Med Chem Lett, 2000)
